{
  "source": "paper PMC9962741",
  "about": "“In Silico and In Vitro Screening of Serine Racemase Agonist and In Vivo Efficacy on Alzheimer’s Disease Drosophila melanogaster” (Pharmaceuticals, 2023)",
  "biological_target": "T1, serine racemase (SRR) (Homo sapiens, UniProt Q9GZT4)",
  "T1 construct": "SRR Enzyme Human Recombinant (ENZ-232, ProSpec)",
  "T1 sequence (Q9GZT4 1-340)": "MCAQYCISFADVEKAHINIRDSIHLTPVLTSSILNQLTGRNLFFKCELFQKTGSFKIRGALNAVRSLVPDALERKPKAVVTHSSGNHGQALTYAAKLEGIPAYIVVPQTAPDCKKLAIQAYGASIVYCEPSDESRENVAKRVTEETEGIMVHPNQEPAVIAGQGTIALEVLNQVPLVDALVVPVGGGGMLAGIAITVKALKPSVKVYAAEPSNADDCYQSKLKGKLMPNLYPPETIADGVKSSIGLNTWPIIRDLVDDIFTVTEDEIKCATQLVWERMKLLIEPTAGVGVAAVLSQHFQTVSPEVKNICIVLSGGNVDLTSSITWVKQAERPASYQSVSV",
  "assay": "recombinant SRR racemization of L-serine, D-serine read by coupled DAAO/HRP luminol luminescence (activation)",
  "format": "biochemical",
  "data": [
    {"smiles": "NC(CSc1nc2ccccn2c1[N+](=O)[O-])C(=O)O", "note": "(stereo not shown) [NSC294149, 2-amino-3-(3-nitroimidazo[1,2-a]pyridin-2-yl)sulfanylpropanoic acid]", "values": [
      {"measurement": "% increase of SRR activity", "value": "200 % increase of SRR activity"}
    ]}
  ]
}
